The MIC is the smallest concentration in the dilution series that meets the test's criterion for growth inhibition.

From PMC10009108, “Design, synthesis and screening of indole acetic acid-based tri-azo moieties as antioxidants, anti-microbial and cytotoxic agents” (Frontiers in Pharmacology, 2023) come the findings set out here.

≈ marks a conversion by molar mass, not a printed value.

The test system of assay [1] is Bacillus subtilis (ATCC-6633). Nature of the assay: Antibacterial assay, micro broth dilution. To be noted: 25 μg/mL. Format: cell-based. Also noted: key to Antibacterial activity, Bacillus subtilis: Activity: Active = Bacterial activity; --- = no activity. The source says:
The micro broth dilution method was used to establish the antibacterial potential of test samples against Staphylococcus aureus (ATCC-6538), Bacillus subtilis (ATCC-6633), Escherichia coli (ATCC-25922), Klebsiella pneumoniae (ATCC-1705), and Pseudomonas aeruginosa (ATCC-15442) and for the resistant strains of MRSA Staphylococcus aureus, P. aeruginosa and Escherichia coli. The procedure used is described by ([Sarker et al., 2007]). Bacterial inoculum was formed under aseptic conditions keeping the density near 5 × 10^4 CFU/mL in pre-autoclaved nutrient broth. Test samples of an aliquot of 5 µL were shifted to labeled wells of 96 well plates, and after that addition of 195 µL of nutrient broth; was accomplished. After that, a 2-fold serial dilution of every sample was arranged to get final concentrations of 12.5 μg/mL. Then, with the help of a micropipette, 195 µL of bacterial culture of respective strains was poured into each well; further advancement was incubating of plates for 30 min at the temperature of 37°C. […] Incubation of plates was again carried out at 37°C for 1 day, absorbance was noted, and net change in turbidity was the difference between two values of absorbance.
Schiff base tri-azo compounds were investigated for antibacterial potential. […] 6.25 μg/mL for 5b and 5g, and the least, Table 4 3.12 μg/mL was for 5f. […] Substituents with electron-withdrawing attributes, e.g., -NO2, -Cl, -OH on the aromatic ring, assert a great impact on the antibacterial activity of synthetic compounds. It is also observed that an increase in the number of -OH groups tend to enhance the activity ([Hosamani and Shingalapur, 2011]). Due to the difference in cell-wall composition of Gram + ve and -ve bacteria, different compounds show different features towards the same micro-organism ([Goszczyn’ska et al., 2015]).

Assay [2] has as its system Staphylococcus aureus (ATCC-6538). The assay is described as follows: Antibacterial assay, micro broth dilution. Format: cell-based. To be noted: ATCC6538, read-out: S. aureus MIC. A general note: Broth dilution looks for growth in wells or tubes with falling amounts of substance.
Assay [3] is described as follows: Total antioxidant capacity (TAC assay). The following applies: rank among the synthetic compounds. Here is the method: This evaluation was based on the protocol by ([Bibi et al., 2011]). This mechanism’s key point is reducing Mo (VI) to Mo (V). A solution consisting of 4 mM Ammonium molybdate, 28 mM SodiumPhosphate, and 0.6 M Sulphuric acid is utilized, which forms Phosphate Molybdenum Complex which is green in color and gives absorption = […]. […] of the sample is added to […] of reagent, which is incubated at 95°C for one and a half hours and cooled to 25°C.
The antioxidant potential of test compounds was estimated by TAC &TRP assays. The spectrophotometric method was used to analyze the formation of the green-colored phosphomolibdenum compound. […] The findings are depicted in Figure 6.

Assay [4] can be described thus: Total reducing power (TRP assay). To be noted: mean ± SD. The protocol:
The process used for TRP was illustrated by ([Bibi et al., 2011]). The […] method is used for 100 μL of each solution, 200 μL Phosphate buffer (0.2 M, pH 6.6), and 250 μL of potassium ferricyanide was mixed and incubated at 50°C for 20 min, to this solution, 10 percent (200 μL) trichloroacetic acid was added, centrifugation was done at 3,000 rpm for 10 min, the supernatant was collected, added with FeCl3 (50 μL), and shifted to the microplate. Absorbance was recorded at 700 nm. Ascorbic acid (100 μg/mL DMSO) is the +ve control for the test, and dimethyl sulfoxide (DMSO) is the blank.
The primary mechanism of TRP assay is based on the compound’s capacity to reduce free radicals, which are generated during the procedure. i.e., Fe^3+ is reduced to Fe^2+ ([Lee et al., 2015]). Various factors determine the antioxidant potential of the compound; a few to explain include the chemical attributes, nature of antioxidant moieties, conditions and mechanism of the reaction, which accounts for the reason for a compound’s activity in one assay and none-to-less response in the other ([Francenia Santos-Sanchez et al., 2019]). However, compounds with hydroxyl and methoxy groups form the bases for potential candidates as an antioxidant ([Rakesh et al., 2015]).

Take `S=c1[nH]nc(Cc2c[nH]c3ccccc23)n1N=Cc1cccc(Cl)c1` [Compound 5f]: the “Antibacterial activity, Bacillus subtilis: Activity” value (shortened to “Antibacterial activity”) in assay [1] is recorded as “---”. Also, in assay [2], the MIC turned out to be 25 µg/mL (≈ 68 µM).
Consider `COc1cccc(C=Nn2c(Cc3c[nH]c4ccccc34)n[nH]c2=S)c1` [Compound 5b], for which the “activity in the TAC assay (in words)” value in assay [3] was “maximum activity”. In addition, the TRP in assay [4] is 706.42 ± 0.004 µg AAE/mg. The “Antibacterial activity” value in assay [1] was “---”.
As to `Oc1ccc(C=Nn2c(Cc3c[nH]c4ccccc34)n[nH]c2=S)cc1` [Compound 5e], the TRP in assay [4] is reported as 619.18 ± 0.010 µg AAE/mg. Further, in assay [1], the “Antibacterial activity” value is reported as “---”.
Turning to `Oc1cccc(C=Nn2c(Cc3c[nH]c4ccccc34)n[nH]c2=S)c1` [Compound 5a], the TRP in assay [4] was determined as 592.26 ± 0.007 µg AAE/mg.
Compound `COc1cc(C=Nn2c(Cc3c[nH]c4ccccc34)n[nH]c2=S)cc(OC)c1OC` [Compound 5g] returned a TRP in assay [4] of 642.67 ± 0.001 µg AAE/mg. Moreover, in assay [1], the “Antibacterial activity” value is on record as “---”. In addition, the MIC in assay [2] was found to be 25 µg/mL (≈ 59 µM).
